Patent US20220280594A1, “APPLICATION OF POLYPEPTIDE OR DERIVATIVE THEREOF” (CHENGDU HUITAI BIOMEDICINE CO., LTD., priority 2019, published 2022)
Ends that are not written are not given here. PEG = not defined here

How the values were obtained:
Type in all cases: cell-based
[1] = tested on: human melanoma cells (A375); assay: scratch assay, migration of A375 cells; conditions: A375, 10 μM, 48 hours; control group 44.03 ± 6.21
In short: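 Monolayers scratched, washed with PBS and cultured 48 hours in 2% FBS medium with polypeptides N1-N54 at 10 μM or PBS control, three wells per group. Migration rate (%) = (original − current scratch width)/original width×100, from imaged scratch widths.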

[2] = tested on: human breast cancer cells (MDA-MB-453); assay: scratch assay, migration of MDA-MB-453 cells; conditions: MDA-MB-453, 10 μM, 48 hours; control group 32.42 ± 2.04
In short: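 Confluent MDA-MB-453 monolayers were scratched, then treated with peptide at 10 μM in 2% FBS medium for 48 h, with a PBS control and triplicate wells. Migration rate (%) was taken as (original − current scratch width)/original width ×100 from images.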

[3] = tested on: human oral epidermoid carcinoma KB cells; assay: scratch assay, migration of KB cells; conditions: 10 μM, 48 hours, control group 54.03 ± 4.21
In short: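 Monolayers of KB cells were scratched, washed with PBS, then cultured 48 hours in 2% FBS medium containing test polypeptide (10 μM) or PBS control, in triplicate wells. From images, migration rate (%) = (original − current scratch width)/original width × 100.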

[4] = tested on: human prostate cancer cells (22RV1); assay: scratch assay, migration of 22RV1 cells; conditions: 22RV1, 10 μM, 48 hours; control group 25.41 ± 5.01
In short: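 22RV1 monolayers (seeded 1-2×10^5 cells/well) were scratched, washed, then given 2% FBS medium with 10 μM polypeptide or PBS, triplicate wells, for 48 h. Migration rate (%) = (original − current scratch width)/original width ×100, from ≥3 images per well.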

[5] = tested on: human breast cancer cells (MDA-MB-231); assay: scratch assay, migration of MDA-MB-231 cells; conditions: MDA-MB-231, 10 μM, 48 hours; control group 36.19 ± 5.15
In short: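 MDA-MB-231 monolayers (1-2×10^5 cells/well) were scratched, then kept 48 h in medium with 2% FBS containing polypeptide at 10 μM, with a PBS control, in triplicate wells. Migration rate (%) was taken from scratch width: (original − current)/original ×100.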

[6] = tested on: human non-small cell lung cancer cells (A549); assay: scratch assay, migration of A549 cells; conditions: A549, 10 μM, 48 hours; control group 75.31 ± 8.19
In short: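 Confluent A549 monolayers in 24-well plates were scratched, washed with PBS, then cultured 48 h in 2% FBS medium with peptide at 10 μM or PBS control, triplicate wells. Scratch width measured from images; migration rate (%) = (original − current width)/original width × 100.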

[7] = tested on: human lung squamous carcinoma cells (NCI-H226); assay: scratch assay, migration of NCI-H226 cells; conditions: NCI-H226, 10 μM, 48 hours; control group 65.31 ± 3.19
In short: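 A straight scratch was made in confluent NCI-H226 monolayers (1-2×10^5 cells/well). Cells were then kept 48 h in 2% FBS medium with 10 μM polypeptide or PBS control, triplicate wells. Migration rate (%) = (original − current scratch width)/original width ×100, from imaged scratch widths.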

[8] = tested on: human liver cancer cells (HepG2); assay: scratch assay, migration of HepG2 cells; conditions: HepG2, 10 μM, 48 hours; control group 71.01 ± 6.63
In short: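 HepG2 monolayers scratched, then cultured 48 h in 2% FBS medium with test polypeptides at 10 μM versus PBS control, triplicate wells. Migration rate (%) computed from original versus current scratch width in images.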

[9] = tested on: human pharyngeal squamous-cell carcinoma cells (Fadu); assay: scratch assay, migration of Fadu cells; conditions: 10 μM, 48 hours, control group 28.76 ± 4.08
In short: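 Confluent Fadu monolayers scratched, then cultured 48 h with 10 μM polypeptide in medium with 2% FBS; PBS control, triplicate wells. Migration rate (%) = (original − current scratch width)/original width × 100, from ≥3 images per well.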

[10] = tested on: human lung cancer cells (95D); assay: scratch assay, migration of 95D cells; conditions: 10 μM, 48 hours, control group 55.3 ± 3.19
In short: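 Confluent 95D monolayers were scratched, washed with PBS and cultured 48 h in 2% FBS medium containing peptide (10 μM) or PBS control, in triplicate wells. Scratch width was measured on images; migration rate (%) = (original width − current width)/original width × 100.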

[11] = tested on: human breast cancer cells (MCF-7); assay: scratch assay, migration of MCF-7 cells; conditions: MCF-7, 10 μM, 48 hours; control group 30.97 ± 1.79
In short: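 MCF-7 monolayers scratched, then cultured 48 hours in 2% FBS medium with test peptide at 10 μM versus PBS control, triplicate wells. Migration rate (%) = (original − current scratch width)/original width × 100, measured from images.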

[12] = tested on: human pancreatic cancer cells (PANC-1); assay: scratch assay, migration of PANC-1 cells; conditions: PANC-1, 10 μM, 48 hours; control group 66.65 ± 3.37
In short: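 PANC-1 monolayers were scratched, then cultured for 48 h with 10 μM test compound in 2% FBS medium, in three parallel wells per group against a PBS control. Migration rate (%) was calculated as (original minus current scratch width) / original width × 100, from imaged wells.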

[13] = tested on: human thyroid cancer cells (FRO); assay: scratch assay, migration of FRO cells; conditions: 10 μM, 48 hours, control group 60.34 ± 8.32
In short: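 FRO monolayers were scratched, washed, and cultured 48 h in 2% FBS medium with polypeptide derivatives at 10 μM or PBS control, three wells per group. Migration rate (%) = (original − current scratch width)/original width × 100, measured from images.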

[14] = tested on: human colon cancer cells (HCT-116); assay: scratch assay, migration of HCT-116 cells; conditions: HCT-116, 10 μM, 48 hours; control group 47.78 ± 6.07
In short: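 Confluent HCT-116 monolayers were scratched, washed and cultured 48 h in 2% FBS medium with peptide at 10 μM versus PBS control, triplicate wells. Migration rate (%) = (original minus current scratch width)/original width × 100, from at least 3 images per well.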

N52: SEQ ID NO: 1 with N18R, addition of two amino acids and PEG modification at the carboxyl terminal (YRVRFLAKENVTQDAEDRCT-{PEG}; reading uncertain)
Migration rate (%) (mean ± SD, P) [1]: 19.57 ± 2.21,** % | Migration rate (%) (mean ± SD, P) [2]: 13.87 ± 3.13,*** % | Migration rate (%) (mean ± SD, P) [3]: 9.57 ± 1.61,*** % | Migration rate (%) (mean ± SD, P) [4]: 5.43 ± 1.97,** % | Migration rate (%) (mean ± SD, P) [5]: 13.19 ± 4.84,** % | Migration rate (%) (mean ± SD, P) [6]: 56.03 ± 4.21,* % | Migration rate (%) (mean ± SD, P) [7]: 27.19 ± 4.67,*** % | Migration rate (%) (mean ± SD, P) [8]: 15.39 ± 7.19,*** % | Migration rate (%) (mean ± SD, P) [9]: 7.76 ± 2.08,*** % | Migration rate (%) (mean ± SD, P) [10]: 27.19 ± 5.67,** % | Migration rate (%) (mean ± SD, P) [11]: 7.23 ± 2.41,** % | Migration rate (%) (mean ± SD, P) [12]: 23.11 ± 4.27,*** % | Migration rate (%) (mean ± SD, P) [13]: 10.86 ± 3.90,*** % | Migration rate (%) (mean ± SD, P) [14]: 18.71 ± 3.59,** %

N10: SEQ ID NO: 1 with deletion of positions 15-18 and 1-3 and PEG modification at the carboxyl terminal (RFLAKENVTQD-{PEG}; reading uncertain)
Migration rate (%) (mean ± SD, P) [1]: 6.71 ± 2.07,*** % | Migration rate (%) (mean ± SD, P) [2]: 6.9 ± 1.65,*** % | Migration rate (%) (mean ± SD, P) [3]: 13.87 ± 3.48,*** % | Migration rate (%) (mean ± SD, P) [4]: 13.39 ± 2.3,* % | Migration rate (%) (mean ± SD, P) [5]: 13.6 ± 4.62,** % | Migration rate (%) (mean ± SD, P) [6]: 26.86 ± 8.78,** % | Migration rate (%) (mean ± SD, P) [7]: 17.75 ± 5.87,*** % | Migration rate (%) (mean ± SD, P) [8]: 39.45 ± 5.00,** % | Migration rate (%) (mean ± SD, P) [9]: 15.93 ± 4.73,* % | Migration rate (%) (mean ± SD, P) [10]: 34.35 ± 5.74,** % | Migration rate (%) (mean ± SD, P) [11]: 9.55 ± 2.72,** % | Migration rate (%) (mean ± SD, P) [12]: 32.80 ± 5.89,** % | Migration rate (%) (mean ± SD, P) [13]: 14.14 ± 3.64,*** % | Migration rate (%) (mean ± SD, P) [14]: 8.70 ± 2.39,*** %

N5: SEQ ID NO: 1 with addition of one amino acid at the carboxyl terminal and deletion of positions 1-3 (RFLAKENVTQDAEDNC)
Migration rate (%) (mean ± SD, P) [1]: 9.82 ± 3.84,*** % | Migration rate (%) (mean ± SD, P) [2]: 14.74 ± 3.23,** % | Migration rate (%) (mean ± SD, P) [3]: 9.62 ± 3.84,*** % | Migration rate (%) (mean ± SD, P) [4]: 10.37 ± 3.53,* % | Migration rate (%) (mean ± SD, P) [5]: 22.13 ± 3.22,* % | Migration rate (%) (mean ± SD, P) [6]: 46.66 ± 5.92,** % | Migration rate (%) (mean ± SD, P) [7]: 10.65 ± 9.94,*** % | Migration rate (%) (mean ± SD, P) [8]: 19.84 ± 5.04,*** % | Migration rate (%) (mean ± SD, P) [9]: 9.07 ± 2.08,*** % | Migration rate (%) (mean ± SD, P) [10]: 28.27 ± 5.00,** % | Migration rate (%) (mean ± SD, P) [11]: 14.50 ± 2.66,** % | Migration rate (%) (mean ± SD, P) [12]: 21.63 ± 6.16,*** % | Migration rate (%) (mean ± SD, P) [13]: 4.71 ± 1.90,*** % | Migration rate (%) (mean ± SD, P) [14]: 12.75 ± 2.82,*** %

N7: SEQ ID NO: 1 with addition of one amino acid at the carboxyl terminal and substitution A15R (YRVRFLAKENVTQDREDNC)
Migration rate (%) (mean ± SD, P) [1]: 8.95 ± 1.27,*** % | Migration rate (%) (mean ± SD, P) [2]: 12.64 ± 2.73,** % | Migration rate (%) (mean ± SD, P) [3]: 11.11 ± 3.86,*** % | Migration rate (%) (mean ± SD, P) [4]: 6.54 ± 2.24,** % | Migration rate (%) (mean ± SD, P) [5]: 21.04 ± 2.46,* % | Migration rate (%) (mean ± SD, P) [6]: 48.64 ± 3.10,** % | Migration rate (%) (mean ± SD, P) [7]: 18.83 ± 4.53,*** % | Migration rate (%) (mean ± SD, P) [8]: 11.54 ± 9.00,*** % | Migration rate (%) (mean ± SD, P) [9]: 13.12 ± 3.56,** % | Migration rate (%) (mean ± SD, P) [10]: 35.72 ± 3.68,** % | Migration rate (%) (mean ± SD, P) [11]: 12.59 ± 3.23,** % | Migration rate (%) (mean ± SD, P) [12]: 37.07 ± 7.83,** % | Migration rate (%) (mean ± SD, P) [13]: 5.73 ± 2.04,*** % | Migration rate (%) (mean ± SD, P) [14]: 20.09 ± 2.41,** %

N8: SEQ ID NO: 1 with deletion of positions 15-18 and positions 3, 4 and 11 (YRFLAKENTQD)
Migration rate (%) (mean ± SD, P) [1]: 4.74 ± 1.84,*** % | Migration rate (%) (mean ± SD, P) [2]: 9.44 ± 2.09,*** % | Migration rate (%) (mean ± SD, P) [3]: 11.55 ± 1.62,*** % | Migration rate (%) (mean ± SD, P) [4]: 8.75 ± 1.98,** % | Migration rate (%) (mean ± SD, P) [5]: 19.02 ± 3.53,* % | Migration rate (%) (mean ± SD, P) [6]: 32.62 ± 5.83,** % | Migration rate (%) (mean ± SD, P) [7]: 20.29 ± 4.29,*** % | Migration rate (%) (mean ± SD, P) [8]: 18.65 ± 6.88,*** % | Migration rate (%) (mean ± SD, P) [9]: 9.54 ± 5.75,** % | Migration rate (%) (mean ± SD, P) [10]: 35.13 ± 4.45,** % | Migration rate (%) (mean ± SD, P) [11]: 11.56 ± 2.35,** % | Migration rate (%) (mean ± SD, P) [12]: 35.11 ± 5.96,** % | Migration rate (%) (mean ± SD, P) [13]: 7.28 ± 2.89,*** % | Migration rate (%) (mean ± SD, P) [14]: 16.96 ± 3.87,** %

N34: SEQ ID NO: 1 with A15R, addition of one amino acid at the carboxyl terminal, PEG modification at the amino terminal ({PEG}-YRVRFLAKENVTQDREDNC; reading uncertain)
Migration rate (%) (mean ± SD, P) [1]: 15.11 ± 2.01,*** % | Migration rate (%) (mean ± SD, P) [2]: 9.57 ± 3.68,*** % | Migration rate (%) (mean ± SD, P) [3]: 12.88 ± 1.71,*** % | Migration rate (%) (mean ± SD, P) [4]: 5.00 ± 2.29,** % | Migration rate (%) (mean ± SD, P) [5]: 17.34 ± 4.82,* % | Migration rate (%) (mean ± SD, P) [6]: 30.51 ± 8.12,** % | Migration rate (%) (mean ± SD, P) [7]: 36.53 ± 4.35,** % | Migration rate (%) (mean ± SD, P) [8]: 18.58 ± 7.87,*** % | Migration rate (%) (mean ± SD, P) [9]: 7.38 ± 2.85,*** % | Migration rate (%) (mean ± SD, P) [10]: 13.53 ± 4.35,*** % | Migration rate (%) (mean ± SD, P) [11]: 15.23 ± 4.39,* % | Migration rate (%) (mean ± SD, P) [12]: 28.58 ± 3.87,*** % | Migration rate (%) (mean ± SD, P) [13]: 8.74 ± 3.40,*** % | Migration rate (%) (mean ± SD, P) [14]: 17.96 ± 3.84,** %
